As a reminder, the IC50 is the concentration needed to halve the response being measured. High values mean weaker potency, low ones greater potency.

The target in the first test is Tyk2 (Homo sapiens (Human), UniProt P29597). In words: pSTAT4 Cell Assay (MSD, NK92 cells). The format is cell-based.
Sequence of Tyk2 (P29597 whole entry): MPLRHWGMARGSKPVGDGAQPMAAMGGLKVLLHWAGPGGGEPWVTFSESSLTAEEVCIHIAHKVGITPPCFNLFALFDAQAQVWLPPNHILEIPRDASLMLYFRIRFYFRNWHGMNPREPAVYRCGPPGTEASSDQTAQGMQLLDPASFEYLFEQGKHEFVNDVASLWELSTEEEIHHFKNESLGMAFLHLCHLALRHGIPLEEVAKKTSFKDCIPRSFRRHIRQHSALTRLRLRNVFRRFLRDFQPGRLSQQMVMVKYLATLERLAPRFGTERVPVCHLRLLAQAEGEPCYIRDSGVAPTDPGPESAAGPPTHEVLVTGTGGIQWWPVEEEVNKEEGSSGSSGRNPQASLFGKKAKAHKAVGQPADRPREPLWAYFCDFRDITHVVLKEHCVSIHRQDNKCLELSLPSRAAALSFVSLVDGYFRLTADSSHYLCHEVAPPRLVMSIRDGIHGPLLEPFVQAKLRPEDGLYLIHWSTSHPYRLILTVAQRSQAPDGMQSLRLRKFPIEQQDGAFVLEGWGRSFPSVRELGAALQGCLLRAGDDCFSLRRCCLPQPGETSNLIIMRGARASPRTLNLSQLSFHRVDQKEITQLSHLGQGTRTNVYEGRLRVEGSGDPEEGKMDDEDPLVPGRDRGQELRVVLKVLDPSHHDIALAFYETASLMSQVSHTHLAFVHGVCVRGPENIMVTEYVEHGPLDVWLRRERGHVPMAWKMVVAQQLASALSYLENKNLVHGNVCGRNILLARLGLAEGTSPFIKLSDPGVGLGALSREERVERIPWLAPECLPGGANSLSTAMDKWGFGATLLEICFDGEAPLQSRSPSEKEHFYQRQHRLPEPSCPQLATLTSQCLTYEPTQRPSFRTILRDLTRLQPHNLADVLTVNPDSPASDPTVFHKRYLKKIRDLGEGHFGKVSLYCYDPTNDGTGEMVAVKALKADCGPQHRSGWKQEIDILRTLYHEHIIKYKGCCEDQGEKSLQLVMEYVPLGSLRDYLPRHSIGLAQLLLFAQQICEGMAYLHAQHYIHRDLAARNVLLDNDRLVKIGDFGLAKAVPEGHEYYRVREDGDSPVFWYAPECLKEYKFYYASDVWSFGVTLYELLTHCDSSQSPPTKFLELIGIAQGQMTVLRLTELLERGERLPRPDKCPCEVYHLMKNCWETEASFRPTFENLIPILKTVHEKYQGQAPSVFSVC
Conditions: not given
How it is done:
The inhibitory potency of compounds of the disclosure against the Tyk2 kinase activity on STAT4 was evaluated using an MSD-platform plate-based assay format. NK92 cells natively expressing STAT4 and Tyk2 were serum-starved to reduce background phosphorylation levels, then cells were treated compounds for 1 hr with a 10-point four-fold dilution series starting at 10 μM. Cells were then stimulated with 30 ng/mL […] for 15 minutes. […] The data were normalized and the percent activity versus log concentration of compound were fitted with a 4-parameter logistic model to generate to generate IC50 curves.
With `CCc1cc(Nc2cc(NC(C)=O)ncc2-c2ccnc(CN3CCOCC3)n2)nc(C(C)(F)F)n1` [Example 909, N-(4-((2-(1,1-difluoroethyl)-6-ethylpyrimidin-4-yl)amino)-5-(2-(morpholinomethyl)pyrimidin-4-yl)pyridin-2-yl)acetamide], the IC50 lay in the range of 100 to 1000 nM.

`CCc1cc(Nc2cc(NC(C)=O)ncc2-c2ncc(CN3CCCC3)cc2F)nc(C(C)(F)F)n1` [Example 904, N-(4′-((2-(1,1-difluoroethyl)-6-ethylpyrimidin-4-yl)amino)-3-fluoro-5-(pyrrolidin-1-ylmethyl)-[2,3′-bipyridin]-6′-yl)acetamide]: the IC50 is ≤ 10 nM.

On to `CC(=O)Nc1cc(Nc2ccnc(C(C)(F)F)n2)c(-c2csc(CC#N)n2)cn1` [Example 922, N-(5-(2-(cyanomethyl)thiazol-4-yl)-4-((2-(1,1-difluoroethyl)pyrimidin-4-yl)amino)pyridin-2-yl)acetamide], for which the IC50 was ≤ 10 nM.

The test is the same for the next values; noted with them: MSD.
Turning to `COCCCOc1cnc(NC(C)=O)cc1Nc1cc(C)nc(C(C)(F)F)n1` [Example 107, N-(4-((2-(1,1-difluoroethyl)-6-methylpyrimidin-4-yl)amino)-5-(3-methoxypropoxy)pyridin-2-yl)acetamide], the concentration for half-maximal inhibition (IC50) was 10 to 100 nM.

`CC(=O)Nc1cc(Nc2cc(C)nc(C(C)(F)F)n2)c(OC[C@@H]2COC(C)(C)O2)cn1` [Example 110, (R)-N-(4-((2-(1,1-difluoroethyl)-6-methylpyrimidin-4-yl)amino)-5-((2,2-dimethyl-1,3-dioxolan-4-yl)methoxy)pyridin-2-yl)acetamide] had an IC50 of 10 to 100 nM.

Consider `COc1ccnc(-c2cnc(NC(C)=O)cc2Nc2cc(C)nc(C(C)(F)F)n2)n1` [Example 658, N-(4-((2-(1,1-difluoroethyl)-6-methylpyrimidin-4-yl)amino)-5-(4-methoxypyrimidin-2-yl)pyridin-2-yl)acetamide], for which the IC50 was ≥ 1000 nM.

Take `CC(=O)Nc1cc(Nc2cc(C)nc(C(C)(F)F)n2)c(OCc2nc(C)cs2)cn1` [Example 112, N-(4-((2-(1,1-difluoroethyl)-6-methylpyrimidin-4-yl)amino)-5-((4-methylthiazol-2-yl)methoxy)pyridin-2-yl)acetamide]: the IC50 was in the range of 10 to 100 nM.

Regarding `CC(=O)Nc1cc(Nc2cc(C)nc(C(C)(F)F)n2)c(-c2cc(N(C)C)cnn2)cn1` [Example 253, N-(4-((2-(1,1-difluoroethyl)-6-methylpyrimidin-4-yl)amino)-5-(5-(dimethylamino)pyridazin-3-yl)pyridin-2-yl)acetamide], the IC50 was ≥ 1000 nM.

`COc1cc(COc2cnc(NC(C)=O)cc2Nc2cc(C)nc(C(C)(F)F)n2)ccn1` [Example 114, N-(4-((2-(1,1-difluoroethyl)-6-methylpyrimidin-4-yl)amino)-5-((2-methoxypyridin-4-yl)methoxy)pyridin-2-yl)acetamide] had an IC50 of 10 to 100 nM.

For the compound `CC(=O)Nc1cc(Nc2ccnc(C(C)(F)F)n2)c(OC(F)F)cn1` [Example 6, N-(4-((2-(1,1-difluoroethyl)pyrimidin-4-yl)amino)-5-(difluoromethoxy)pyridin-2-yl)acetamide], the half-maximal inhibitory concentration (IC50) was ≥ 1000 nM.

Take `COc1nc(-c2cnc(NC(C)=O)cc2Nc2cc(C)nc(C(C)(F)F)n2)nn1C` [Example 609, N-(4-((2-(1,1-difluoroethyl)-6-methylpyrimidin-4-yl)amino)-5-(5-methoxy-1-methyl-1H-1,2,4-triazol-3-yl)pyridin-2-yl)acetamide]: the IC50 lay within 100 to 1000 nM.

The compound `CC(=O)Nc1cc(Nc2cc(C)nc(C(C)(F)F)n2)c(-c2ncc3c(n2)COC3)cn1` [Example 678, N-(4-((2-(1,1-difluoroethyl)-6-methylpyrimidin-4-yl)amino)-5-(5,7-dihydrofuro[3,4-d]pyrimidin-2-yl)pyridin-2-yl)acetamide] came in with an IC50 of 10 to 100 nM.

For the compound `CO[C@H]1C[C@H](Oc2cc(Nc3cc(NC(C)=O)ncc3-c3ccn(C)n3)nc(C(C)(F)F)c2)C1` [Example 148, N-(4-((6-(1,1-difluoroethyl)-4-((1r,3r)-3-methoxycyclobutoxy)pyridin-2-yl)amino)-5-(1-methyl-1H-pyrazol-3-yl)pyridin-2-yl)acetamide], the IC50 is ≤ 10 nM.

For `CC(=O)Nc1cc(Nc2cc(C(C)C)nc(C(C)(F)F)n2)c(-c2ccn(C)n2)cn1` [Example 205, N-(4-((2-(1,1-difluoroethyl)-6-isopropylpyrimidin-4-yl)amino)-5-(1-methyl-1H-pyrazol-3-yl)pyridin-2-yl)acetamide], the IC50 was ≥ 1000 nM.

With `CC(=O)Nc1cc(Nc2cc(C)nc(C(C)(F)F)n2)c(-c2cc3n(n2)CCN(C)C3C)cn1` (stereo not drawn) [Example 683, N-(4-((2-(1,1-difluoroethyl)-6-methylpyrimidin-4-yl)amino)-5-(4,5-dimethyl-4,5,6,7-tetrahydropyrazolo[1,5-a]pyrazin-2-yl)pyridin-2-yl)acetamide], the 50% inhibitory concentration (IC50) is ≤ 10 nM.

As for `COc1nc(-c2cnc(NC(C)=O)cc2Nc2cc(C)nc(C(C)(F)F)n2)ncc1F` [Example 659, N-(4-((2-(1,1-difluoroethyl)-6-methylpyrimidin-4-yl)amino)-5-(5-fluorO4-methoxypyrimidin-2-yl)pyridin-2-yl)acetamide], the IC50 is ≥ 1000 nM.

Consider `CC(=O)Nc1cc(Nc2cc(C)nc(C(C)(F)F)n2)c(OCC2CCCOC2)cn1` (stereo not drawn) [Example 136, N-(4-((2-(1,1-difluoroethyl)-6-methylpyrimidin-4-yl)amino)-5-((tetrahydro-2H-pyran-3-yl)methoxy)pyridin-2-yl)acetamide], for which the IC50 was ≤ 10 nM.

Take `CC(=O)Nc1cc(Nc2cc(C)nc(C(C)(F)F)n2)c(-c2nc3c(s2)CN(C)C3)cn1` [Example 684, N-(4-((2-(1,1-difluoroethyl)-6-methylpyrimidin-4-yl)amino)-5-(5-methyl-5,6-dihydrO4H-pyrrolo[3,4-d]thiazol-2-yl)pyridin-2-yl)acetamide]: the IC50 was ≤ 10 nM.

As for `CC(=O)Nc1cc(Nc2cc(C)nc(C(C)(F)F)n2)c(OCc2csc(C)n2)cn1` [Example 117, N-(4-((2-(1,1-difluoroethyl)-6-methylpyrimidin-4-yl)amino)-5-((2-methylthiazol-4-yl)methoxy)pyridin-2-yl)acetamide], the half-maximal inhibitory concentration (IC50) was ≤ 10 nM.

For `CC(=O)Nc1cc(Nc2cc(C)nc(C(C)(F)F)n2)c(C2=NC3C(=O)OCC3C=N2)cn1` (stereo not drawn) [Example 682, N-(4-((2-(1,1-difluoroethyl)-6-methylpyrimidin-4-yl)amino)-5-(7-oxO4a,5,7,7a-tetrahydrofuro[3,4-d]pyrimidin-2-yl)pyridin-2-yl)acetamide], the IC50 was ≤ 10 nM.

Consider `CC(=O)Nc1cc(Nc2cc(C)nc(C(C)(F)F)n2)c(-c2ccnc(N(C)C)n2)cn1` [Example 629, N-(4-((2-(1,1-difluoroethyl)-6-methylpyrimidin-4-yl)amino)-5-(2-(dimethylamino)pyrimidin-4-yl)pyridin-2-yl)acetamide], for which the IC50 was ≤ 10 nM.

As to `CC(=O)Nc1cc(Nc2cc(C)nc(C3CCOC3)n2)c(-c2cc3n(n2)CCN(C)C3)cn1` (stereo not drawn) [Example 547, N-(4-((6-methyl-2-(tetrahydrofuran-3-yl)pyrimidin-4-yl)amino)-5-(5-methyl-4,5,6,7-tetrahydropyrazolo[1,5-a]pyrazin-2-yl)pyridin-2-yl)acetamide], the IC50 was ≤ 10 nM.

Regarding `CC(=O)Nc1cc(Nc2cc(C)nc(C(C)(F)F)n2)c(-c2cc3n(n2)CCNC3=O)cn1` [Example 223, N-(4-((2-(1,1-difluoroethyl)-6-methylpyrimidin-4-yl)amino)-5-(4-oxo-4,5,6,7-tetrahydropyrazolo[1,5-a]pyrazin-2-yl)pyridin-2-yl)acetamide], the half-maximal inhibitory concentration (IC50) lay in the range of 10 to 100 nM.

Regarding `COc1cnc(NC(C)=O)cc1Nc1cc(-c2cc(F)c3nn(C)cc3c2)nc(C(C)(F)F)n1` [Example 396, N-(4-((2-(1,1-difluoroethyl)-6-(7-fluoro-2-methyl-2H-indazol-5-yl)pyrimidin-4-yl)amino)-5-methoxypyridin-2-yl)acetamide], the IC50 fell in the range of 10 to 100 nM.

On to `CC(=O)Nc1cc(Nc2cc(C)nc(C(C)(F)F)n2)c(OCc2ccc(C)nc2)cn1` [Example 116, N-(4-((2-(1,1-difluoroethyl)-6-methylpyrimidin-4-yl)amino)-5-((6-methylpyridin-3-yl)methoxy)pyridin-2-yl)acetamide], for which the IC50 lay in the range of 10 to 100 nM.

Consider `CC(=O)Nc1cc(Nc2cccc(C(F)CF)n2)c(-c2ccn(C)n2)cn1` (stereo not drawn) [Example 149, N-(4-((6-(1,2-difluoroethyl)pyridin-2-yl)amino)-5-(1-methyl-1H-pyrazol-3-yl)pyridin-2-yl)acetamide], for which the IC50 is ≤ 10 nM.

In the case of `CCc1cc(Nc2cc(NC(C)=O)ncc2-c2cc3n(n2)CCN(C)C3)nc(C(C)(F)F)n1` [Example 721, N-(4-((2-(1,1-difluoroethyl)-6-ethylpyrimidin-4-yl)amino)-5-(5-methyl-4,5,6,7-tetrahydropyrazolo[1,5-a]pyrazin-2-yl)pyridin-2-yl)acetamide], the IC50 was ≤ 10 nM.

Consider `CCN1CCn2nc(-c3cnc(NC(C)=O)cc3Nc3cc(C)nc(C45COC(C4)C5)n3)cc2C1` [Example 544, N-(4-((2-(2-oxabicyclo[2.1.1]hexan-4-yl)-6-methylpyrimidin-4-yl)amino)-5-(5-ethyl-4,5,6,7-tetrahydropyrazolo[1,5-a]pyrazin-2-yl)pyridin-2-yl)acetamide], for which the IC50 was ≤ 10 nM.

`CCC1(COc2cnc(NC(C)=O)cc2Nc2cc(C)nc(C(C)(F)F)n2)COC1` [Example 109, N-(4-((2-(1,1-difluoroethyl)-6-methylpyrimidin-4-yl)amino)-5-((3-ethyloxetan-3-yl)methoxy)pyridin-2-yl)acetamide] returned an IC50 of 10 to 100 nM.

In turn, `COCc1ccc(-c2cnc(NC(C)=O)cc2Nc2cc(C)nc(C3CCCOC3)n2)nc1` (stereo not drawn) [Example 571, N-(5-(methoxymethyl)-4′-((6-methyl-2-(tetrahydrO2H-pyran-3-yl)pyrimidin-4-yl)amino)-[2,3′-bipyridin]-6′-yl)acetamide] displayed an IC50 of 10 to 100 nM.
